# Assay results reported in PMC2765639 (PLoS Neglected Tropical Diseases, 2009).
# Like-named read-outs stand apart in the source and are kept apart here.
# Assays:
# L. major promastigotes = assay: L. major promastigote drug susceptibility assay (alamar blue, 384-well); assay type: cell-based, Leishmania major; details: for primary hit (≥50% inhibition of signal readout): single concentration 10 µM, LOPAC, UP-CMLD DP validation set or PMLSC library
# Experimental: Promastigotes were grown in vented T75 tissue culture flasks and maintained at 28°C. Promastigote cultures were initiated at 10^5 parasites per mL and subcultured every 3–4 days. L. major promastigote counts were performed in duplicate using a hemocytometer and particle counter (Beckman Coulter, Fullerton, CA). For HTS assays, L. major promastigote cultures were harvested during exponential growth phase (∼2.0–3.0×10^7 parasites/mL) and were not maintained past passage 20.
# The final test compound concentration was 10 µM with a constant DMSO concentration of 1% in each assay well.
# The L. major promastigote drug susceptibility assay was performed in a final volume of 25 µL using our previously described 384-well microtiter plate format,[39]. For automated HTS procedures, L. major promastigotes (5,000 parasites/22 µL) in complete growth medium were seeded into each well of the microtiter plates using a MAPC2 bulk dispenser (Titertek, Huntsville, AL). Test and control compounds (3 µL) were added to individual wells using a Velocity 11 V-prep (Menlo Park, CA) liquid handling system, equipped with a 384-well dispensing head, followed by centrifugation at 50 g for 1 min. […] Assay plates were allowed to incubate for 44 h at 28°C in the presence of 5% CO2. Five µL of alamar blue reagent were added to each assay plate well and incubated for 4 h at 28°C with 5% CO2. Data were captured on a Molecular Devices SpectraMax M5 (excitation560; emission590). Individual assay plate Z-factors were derived from the vehicle and positive controls, and data from plates were used only if Z-factors were >0.5 [50].
# The assays were performed in duplicate with a final 10-point concentration range spanning 0.01–5.00 µM.
# A549 = assay: Mammalian cell line specificity assay (alamar blue); assay type: cell-based, human; details: Table S1; PMLSC library samples; read-out: EC50 Ave ± SD, A549
# Experimental: Mammalian cells were cultured and maintained according to ATCC specifications (ATCC, Manassas, VA). Cell line drug susceptibility assays were performed in final volumes of 25 µL using our previously described 384-well microtiter plate format,[39]. […] Test and control compounds were added to individual wells as described above. Vehicle and positive controls were 1% DMSO and 10% DMSO, respectively (final well concentrations). Assay plates were incubated for 44–46 h at 37°C in the presence of 5% CO2 and growth inhibitory effects were determined as described above. Five µL of alamar blue reagent was added to each well and incubated for 2–4 h. Data were captured as described above.
# [1] = Table S1, PMLSC library samples, 10-point 0.01–5.00 µM, read-out: EC50 Ave ± SD, Lm
# [2] = Leishmania major, assay optimization, 384-well format, read-out: EC50, L. major promastigotes, known leishmanicidals
Compound,EC50 (L. major promastigotes; [1]) [µM],EC50 (A549) [µM],primary hit (≥50% inhibition of signal readout) (L. major promastigotes),EC50 (L. major promastigotes; [2]) [µM],"EC50 (L. major promastigotes; assay optimization, 384-well format, read-out: EC50, L. major promastigotes, known leishmanicidals) [µM]"
CN(C)C(=S)SSC(=S)N(C)C [CID 5455],0.098 ± 0.012,0.75 ± 0.002,–,–,–
O=[N+]([O-])c1cc(-c2nnc(C34CC5CC(CC(C5)C3)C4)o2)cc([N+](=O)[O-])c1 [CID 380438],0.117 ± 0.022,> 5,–,–,–
CN(C)C(=O)c1ccc[n+](CC(=O)Nc2ccc(Cl)cc2)c1 [CID 422270],0.289 ± 0.044,2.92 ± 0.32,–,–,–
Cc1nc2c(=O)n(C)c(=O)nc-2n(C)n1 [CID 460747],0.202 ± 0.011,0.158 ± 0.018,–,–,–
COc1ccc2cc3[n+](cc2c1OC)CCc1cc2c(cc1-3)OCO2 [CID 629413],0.379 ± 0.077,> 5,–,–,–
COc1ccc2c3c(cccc13)NN=C2C [CID 644992],0.255 ± 0.021,> 5,–,–,–
Cc1nnc(Nc2ccccn2)c2ccccc12 [CID 645317],0.723 ± 0.024,> 5,–,–,–
[O-][N+]1=c2ccc(Nc3ccccc3)cc2=NC12CCCCC2 [CID 657546],0.845 ± 0.136,> 5,–,–,–
Cc1c(Cl)sn(-c2ccc(Cl)cc2)c1=O [CID 759209],0.545 ± 0.118,2.58 ± 0.185,–,–,–
O=c1c(Cl)nc2cc(Cl)ccc2n1CCNc1ncc(C(F)(F)F)cc1Cl [CID 1471937],0.513 ± 0.052,4.31 ± 0.54,–,–,–
Cc1cc(C(=O)CCl)c(C)n1Cc1ccco1 [CID 1537038],0.784 ± 0.036,> 5,–,–,–
CCOC(=O)c1c2c(n(C)c1C)C(=O)C(=O)c1ccc(Br)cc1-2 [CID 1736381],0.087 ± 0.021,0.613 ± 0.109,–,–,–
CCOC(=O)C(=Cc1cc(=O)c(OC)co1)C(=O)OCC [CID 1811924],0.166 ± 0.009,> 5,–,–,–
COc1ccccc1-n1cnc2c(c1=O)c1nc3ccccc3nc1n2-c1ccc(C)c(C)c1 [CID 1987332],0.085 ± 0.005,> 5,–,–,–
CCCCCCCCCCCCCCCCn1cc[n+](C)c1 [CID 2846928],0.035 ± 0.001,1.64 ± 0.059,–,–,–
CCCOC(=O)CSC1=C(C#N)C(c2ccccc2Cl)CC(=O)N1 (stereo not shown) [CID 2855568],0.122 ± 0.012,> 5,–,–,–
CCc1ccc(NSc2ccccc2[N+](=O)[O-])cc1 [CID 2856077],0.751 ± 0.11,> 5,–,–,–
COc1ccc(C2=NCC(CSc3nnc(-c4ccc5c(c4)OCO5)o3)S2)cc1 (stereo not shown) [CID 2999476],0.187 ± 0.026,> 5,–,–,–
O=[N+]([O-])c1ccc(NNC(=S)Nc2ccc(F)cc2)cc1 [CID 3127155],0.452 ± 0.074,> 5,–,–,–
COC(=O)c1cc2ccsc2n1Cc1nc(-c2ccc(OC)cc2)oc1C [CID 3236501],0.105 ± 0.01,> 5,–,–,–
COC(=O)CNc1nc(-c2ccccc2F)nc2ccccc12 [CID 3237155],0.743 ± 0.062,> 5,–,–,–

Compound,EC50 (L. major promastigotes; [1]) [µM],EC50 (A549) [µM],primary hit (≥50% inhibition of signal readout) (L. major promastigotes),EC50 (L. major promastigotes; [2]) [µM],"EC50 (L. major promastigotes; assay optimization, 384-well format, read-out: EC50, L. major promastigotes, known leishmanicidals) [µM]"
O=C(NCC(c1cccnc1)N1CCN(c2ccc(F)cc2)CC1)Oc1ccccc1 (stereo not shown) [CID 3242548],0.111 ± 0.01,> 5,–,–,–
N#CC(c1ccc(Cl)cc1)c1ccc2c(C(F)(F)F)cc(C(F)(F)F)nc2n1 (stereo not shown) [CID 3564202],0.565 ± 0.035,2.11 ± 0.077,–,–,–
COC(=O)C1CN(C#N)N(c2ccc(Cl)cc2)C12c1ccccc1-c1ccccc12 (stereo not shown) [CID 3609942],0.073 ± 0.013,2.75 ± 0.073,–,–,–
Cc1ccccc1-n1ncc2c([N+](=O)[O-])cc([N+](=O)[O-])cc21 [CID 3932660],0.061 ± 0.004,> 5,–,–,–
Cc1ccc2nc(Cl)c3nnnn3c2c1 [CID 4202676],0.767 ± 0.076,> 5,–,–,–
Cc1nc([N+](=O)[O-])nn1C12CC3CC(CC(Cl)(C3)C1)C2 [CID 5032706],0.856 ± 0.033,> 5,–,–,–
CC(C)CCN(C)C1CCN(S(=O)(=O)c2cccc(C(F)(F)F)c2)CC1 [CID 6602880],0.01 ± 0.003,> 5,–,–,–
N=c1c2c(n(Cc3ccccc3)c3c1CCC3)CCC2 [CID 6603247],0.083 ± 0.005,> 5,–,–,–
O=C1C2CCN(CC2)C1Cc1ccc(OCCOc2ccccc2)cc1 (stereo not shown) [CID 6603672],0.274 ± 0.051,> 5,–,–,–
"Clc1ccccc1C(c1ccccc1)(c1ccccc1)n1ccnc1 [Clotrimazole, reference compound]",–,–,primary hits,–,–
"COc1ccc2cc3[n+](cc2c1OC)CCc1cc2c(cc1-3)OCO2 [berberine, reference compound]",–,–,primary hits,–,–
"CC(=O)N1CCN(c2ccc(OCC3COC(Cn4ccnc4)(c4ccc(Cl)cc4Cl)O3)cc2)CC1 (stereo not shown) [ketoconazole, reference compound]",–,–,primary hits,–,–
"COc1c(C)c2c(c(O)c1C/C=C(\C)CCC(=O)O)C(=O)OC2 [mycophenolic acid, reference compound]",–,–,primary hits,–,–
"O=C(Nc1ccc([N+](=O)[O-])cc1Cl)c1cc(Cl)ccc1O [niclosamide, reference compound]",–,–,primary hits,–,–
"NC[C@@H]1O[C@H](O[C@H]2[C@@H](O)[C@H](O[C@@H]3[C@@H](O)[C@H](N)C[C@H](N)[C@H]3O[C@H]3O[C@H](CO)[C@@H](O)[C@H](O)[C@H]3N)O[C@@H]2CO)[C@H](N)[C@@H](O)[C@@H]1O [paromomycin, reference compound]",–,–,–,19.7 ± 0.6,–
"N=C(N)c1ccc(OCCCCCOc2ccc(C(=N)N)cc2)cc1 [pentamidine, reference compound]",–,–,–,0.36 ± 0.02,–
"CCN(CC)CCCC(C)Nc1c2ccc(Cl)cc2nc2ccc(OC)cc12 (stereo not shown) [quinacrine, reference compound]",–,–,primary hits,–,–
"O=C(O)[C@@H]1[O][Sb](=[O])([O][Sb]2(=[O])[O][C@H]([C@H](O)CO)[C@H](O)[C@H](C(=O)O)[O]2)[O][C@H]([C@H](O)CO)[C@@H]1O.[Na+].[Na+].[Na+] (stereo partly shown) [sodium stibogluconate, reference compound]",–,–,–,–,> 100
"CC/C(=C(\c1ccccc1)c1ccc(OCCN(C)C)cc1)c1ccccc1 [tamoxifen, reference compound]",–,–,primary hits,–,–
ivermectin [reference compound],–,–,primary hits,–,–

# More lines, in order of falling EC50 (L. major promastigotes; [1]), values ahead:
EC50 (L. major promastigotes; [1]) [µM],EC50 (A549) [µM],Compound,primary hit (≥50% inhibition of signal readout) (L. major promastigotes),EC50 (L. major promastigotes; [2]) [µM],"EC50 (L. major promastigotes; assay optimization, 384-well format, read-out: EC50, L. major promastigotes, known leishmanicidals) [µM]"
0.788 ± 0.114,0.151 ± 0.01,CCOC(=O)N=Nc1c2ccccc2c2nc3no[nH]c3nc12 [CID 5833488],–,–,–
0.767 ± 0.16,3.55 ± 0.582,CC(C)(C)c1ccc(-n2nc(C#N)c(Cl)cc2=O)cc1 [CID 2766929],–,–,–
0.718 ± 0.086,> 5,O=S(=O)(CCSc1nc2ccccc2s1)c1nc2ccccc2s1 [CID 2194030],–,–,–
0.635 ± 0.026,4.7 ± 0.311,Nc1cccc2nc3ccccc3cc12 [CID 11352],–,–,–
0.545 ± 0.193,> 5,COC(=O)c1cccc(Cn2c(Cl)c(C=NNc3ccccc3C)sc2=O)c1 [CID 4271960],–,–,–
0.504 ± 0.066,> 5,CN(C)c1cc(NN=Cc2ccc(Cl)cc2)nc(N(C)C)n1 [CID 3769434],–,–,–
0.499 ± 0.135,> 5,Fc1cccc(-c2nnn3c2nc(Cl)c2ccccc23)c1 [CID 2137463],–,–,–
0.392 ± 0.04,> 5,Nc1nsc2ccccc12 [CID 89966],–,–,–
0.382 ± 0.056,> 5,CC1=C(C(=O)Nc2cc(-c3cccc(F)c3)[nH]n2)C2(CCCCC2)OC1=O [CID 5309827],–,–,–
0.326 ± 0.04,> 5,CCC(C)(c1nnnn1-c1c(C)cccc1C)N(N=O)c1ccccc1Cl (stereo not shown) [CID 3521510],–,–,–
0.287 ± 0.145,> 5,COc1ccc(S(=O)(=O)Nc2ccc(O)c3ccccc23)cc1 [CID 871185],–,–,–
0.255 ± 0.048,> 5,O=C1CC(c2ccccc2Br)c2cc3c(cc2N1)CCC3 (stereo not shown) [CID 2937831],–,–,–
0.242 ± 0.029,0.955 ± 0.025,COc1ccc(NC(=O)/C(Cl)=C(/Cl)[S+]([O-])Cc2ccccc2Cl)cn1 (stereo not shown) [CID 1475345],–,–,–
0.218 ± 0.054,1.06 ± 0.156,CCCc1nc2c(=O)n(C)c(=O)nc-2n(C)n1 [CID 3164059],–,–,–
0.205 ± 0.021,4.08 ± 0.352,O=C(Nc1ccc(Cl)cn1)c1ccc([N+](=O)[O-])o1 [CID 952234],–,–,–
0.192 ± 0.002,> 5,O=C(c1cccnc1)N(c1cc2sc(=O)oc2c2ccccc12)S(=O)(=O)c1ccccc1 [CID 3980962],–,–,–
0.164 ± 0.042,> 5,COc1cc(CNCc2cccs2)ccc1OCc1ccccc1 [CID 2964134],–,–,–
0.104 ± 0.027,> 5,COC(=O)c1ccc(-c2ccc(CNCC(O)c3ccccc3)o2)cc1 (stereo not shown) [CID 6602747],–,–,–
0.06 ± 0.0001,> 5,COCCCNCCCCOc1ccc(Br)cc1Cl [CID 2923184],–,–,–
